Assay [1] concerns 5-HTP-induced defecation (diarrhea or loose stool). Kind of assay: In vivo 5-hydroxytryptophan (5-HTP)-induced defecation model of mice. Particulars: oral administration 30 minutes before 5-HTP 10 mg/kg s.c., fecal score over 30 minutes. Also on record: species or system mouse. The procedure: The tests were conducted by a method of G. J. Sanger et al. (British Journal of Pharmacology, 130: 706-712, 2000).
Male SLC:ICR mice (6 weeks old) were moved to 5stainless steel cages connected together for mice. After the naturalization for at least one hour, a test compound was orally administered (n=10). 30 minutes after, 10 mg/5 mL/kg of 5-HTP or vehicle (5mL/kg of physiological saline for a group for which 5-HTP was not used) was injected subcutaneously. The state of the fecal pellets of each mouse excreted in 30 minutes immediately after the injection was observed [scored as 0 (normal fecal pellets or no fecal pellets) or 1(diarrhea or loose stool)]. The score obtained by subtracting the score of the group to which 5-HTP had not been given from the score of the group to which 5-HTP had been given was taken as 100%. The amount of a test compound for 50% control (ID50) was calculated.

In assay [2] the test system is abdominal pain threshold on colorectal distension. The experiment in a line: Elevation of threshold value of abdominal pain in in vivo rat colorectal distension model. The settings on record: rats, oral administration. The procedure: The tests were conducted by a method of Saito et al. (Anesth. Analg. 1998; 87: 382-387).
Male Crj:CD rats (250-350 g) were used. A test compound was orally administered to them (n=8). A balloon (length: 7 cm) for dilating the colon was connected to a transducer . After fasting each rat for one day, the balloon was noninvasively inserted internally into the colorectal portion and the base of the balloon was positioned 1 cm from anus under light anesthesia with ether. Water was injected into the balloon at a rate of 0.9 ml/min until the inner pressure in the balloon reached 100 mmHg (cut off value). When the contraction of the abdominal muscle was macroscopically observed during the colon distension, the pressure in the balloon was taken as the threshold value of abdominal pain. The colon distension was conducted at intervals of at least 5 minutes.
The analgesic effect was determined according to the following formula: Analgesic effect (%)=[(threshold value of abdominal pain after treatment with test compound)−(threshold value of abdominal pain before treatment with test compound)]/[100−(threshold value of abdominal pain before treatment with test compound)]×100.
The analgesic effect was calculated as the dose of the test compound required for 50% control (ID50).

We go through 2 molecules from patent US7320973B2, “Dihydrodiaryloxazepine derivative and pharmaceutical composition containing the same” (Ajinomoto Co., Inc., priority 2001, dated 2008).

Where a name gives a salt, the structure may show the parent alone.

`CN(C)c1ccc(CCN2CCC[C@@H]2CN2c3cc(Cl)ccc3COc3ccccc32)cc1` [Example 8, (R)-3-Chloro-5,11-dihydro-5-[1-(4-dimethylaminophenethyl)pyrrolidin-2-ylmethyl]dibenzo[b,e][1,4]oxazepine dihydrochloride]: the “ID50 (5-HTP-induced defecation)” value in assay [1] is on record as 8.3 mg/kg. The “ID50 (analgesic effect, threshold value of abdominal pain)” value in assay [2] came out at 2.6 mg/kg. In the case of `Fc1ccc2c(c1)OCc1ccccc1N2C[C@H]1CCCN1CCc1ccc(N2CCCC2)cc1` [Example 12, (R)-8-Fluoro-5,11-dihydro-5-[1-(4-pyrrolidinophenethyl)pyrrolidin-2-yl-methyl]dibenzo[b,e]1,4]oxazepine dihydrochloride], the “ID50 (analgesic effect, threshold value of abdominal pain)” value in assay [2] stood at 1.9 mg/kg.
